Source: patent US11492359B2, “Near-infrared nerve-sparing fluorophores” (OREGON HEALTH & SCIENCE UNIVERSITY, priority 2018, dated 2022)

Assay: UV-Vis absorption and fluorescence spectroscopy of the Oxazine library
Format: physicochemical
Settings: for Extinction coefficient: Beer's Law plots; for Quantum yield: relative, references Oxazine 1, Oxazine 170, Rhodamine 101
Method: All reagents were purchased from Sigma Aldrich, Fisher Scientific, TCI, or Ark Pharm. Unless otherwise indicated, all commercially available starting materials were used directly without further purification. Analytical thin layer chromatography (TLC) was performed on Millipore ready-to-use plates with silica gel 60 (F254, 32-63 μm). Flash chromatography was performed on Sorbent Technologies silica gel for column chromatography or on a Biotage Isolera Flash System using SNAP Ultra cartridges. High-resolution mass spectra (HRMS) were measured on a ThermoElectron LTQ-Orbitrap high resolution mass spectrometer with a dedicated Accela HPLC system, or an Agilent 6244 time-of-flight LCMS with diode array detector VL+. LCMS and Purity Characterization Mass-to-charge ratio and purity of the Oxazine compounds were characterized on an Agilent 6244 time-of-flight tandem liquid chromatography mass spectroscopy (LCMS) with diode array detector VL+. Sample (10 μL) was injected into a C18 column (Poroshell 120, 4.6×50 mm, 2.7 micron), and eluted with a solvent system of A (H2O, 0.1% FA) and B (MeCN, 01.% FA) at 0.4 mL/min, from A/B=90/10 to 5/95 over 10 min, maintained at A/B=5/95 for additional 5 min. Ions were detected in positive ion mode by setting the capillary voltage at 4 kV and gas temperature at 350° C. Purity was calculated through area under the curve analysis of the absorbance at 254 nm. UV-Vis Absorption and Fluorescence Spectroscopy. UV-Vis spectra were collected with a Cary 50 UV-Vis spectrophotometer at room temperature, using a 1-cm quartz cuvette. Fluorescence spectra were collected on a Cary Eclipse fluorescence spectrophotometer (Agilent Technologies). All absorbance spectra were reference corrected. Extinction coefficient was calculated from Beer's Law plots of absorbance versus concentration. Fluorescence spectra were corrected for the wavelength dependent response of the R928 photomultiplier tube using a manufacturer generated correction file. Relative quantum yields are reported as the average of multiple measurements using multiple references, including Oxazine 1, Oxazine 170, and Rhodamine 101. Physicochemical Property Calculation. Physicochemical partition coefficients (Log D) values at pH 7.4, number of hydrogen bond donors and acceptors, polar surface area, and the number of rotatable bonds were calculated using Marvin and JChem calculator plugins (ChemAxon, Budapest, Hungary). Nerve-Specificity Screening using Direct/Topical Administration Each compound was screened for its tissue-specificity using a previously published direct/topical administration strategy in murine brachial plexus and sciatic nerves.^1 Each compound from the Oxazine library was formulated in the previously utilized co-solvent formulation (10% DMSO, 5% Kolliphor, 65% serum and 20% phosphate buffered saline) at 125 μM. 100 μL of the formulated Oxazine were incubated on the exposed brachial plexus or sciatic nerve for 5 minutes. The fluorophore containing solution was removed and the area was irrigated with saline 18 times to remove any unbound fluorophore. Co-registered fluorescence and color images were collected of each stained area 30 minutes after Oxazine direct/topical administration using a custom built macroscopic imaging system with 620/60 nm excitation and 700/75 nm bandpass emission filters. Custom written MatLab code was used to analyze the tissue specific fluorescence where regions of interest were selected on the nerve, muscle and adipose tissue using the white light images. These regions of interest were then analyzed on the co-registered matched fluorescence images permitting assessment of the nerve to muscle and nerve to adipose ratios in blinded manner. […]

## CC/N=c1/cc2oc3cc(NCC)ccc3nc-2cc1C [LGW01-18, (Z)—N-(7-(ethylamino)-2-methyl-3H-phenoxazin-3-ylidene)ethanaminium]
  Max Abs: 617 nm
  Max Em: 636 nm
  Max Ex: 620 nm
  Extinction coefficient: 60731 M⁻¹ cm⁻¹
  Quantum yield: 32.91%

## CCNc1ccc2nc3ccc(=[N+](CC)CC)cc-3oc2c1 [LGW01-25, N-ethyl-N-(7-(ethylamino)-3H-phenoxazin-3-ylidene)ethanaminium]
  Max Abs: 635 nm
  Max Em: 660 nm
  Max Ex: 640 nm
  Extinction coefficient: 41771 M⁻¹ cm⁻¹
  Quantum yield: 3.31%

## C/N=c1/cc2oc3cc(NC)c(C)cc3nc-2cc1C [LGW01-61, (Z)—N-(2,8-dimethyl-7-(methylamino)-3H-phenoxazin-3-ylidene)methanaminium]
  Max Abs: 612 nm
  Max Em: 631 nm
  Max Ex: 610 nm
  Extinction coefficient: 21783 M⁻¹ cm⁻¹
  Quantum yield: 40.27%

## CC/N=c1\ccc2nc3ccc(NCC)c(C)c3oc-2c1C [LGW02-57, (E)-N-(7-(ethylamino)-4,6-dimethyl-3H-phenoxazin-3-ylidene)ethanaminium]
  Max Abs: 635 nm
  Max Em: 653 nm
  Max Ex: 635 nm
  Extinction coefficient: 56713 M⁻¹ cm⁻¹
  Quantum yield: 11.15%

## CC/N=c1/cc2oc3c(C)c(NCC)ccc3nc-2cc1C [LGW02-58, (Z)—N-(7-(ethylamino)-2,6-dimethyl-3H-phenoxazin-3-ylidene)ethanaminium]
  Max Abs: 620 nm
  Max Em: 635 nm
  Max Ex: 620 nm
  Extinction coefficient: 42685 M⁻¹ cm⁻¹
  Quantum yield: 25.26%

## CC/N=c1/cc2oc3cc(NCC)cc(C)c3nc-2cc1C [LGW02-59, (Z)—N-(7-(ethylamino)-2,9-dimethyl-3H-phenoxazin-3-ylidene)ethanaminium]
  Max Abs: 611 nm
  Max Em: 636 nm
  Max Ex: 615 nm
  Extinction coefficient: 41229 M⁻¹ cm⁻¹
  Quantum yield: 31.74%

## CCNc1ccc2nc3ccc(=[N+](CC)CC)cc-3oc2c1C [LGW02-60, N-ethyl-N-(7-(ethylamino)-6-methyl-3H-phenoxazin-3-ylidene)ethanaminium]
  Max Abs: 645 nm
  Max Em: 661 nm
  Max Ex: 650 nm
  Extinction coefficient: 65369 M⁻¹ cm⁻¹
  Quantum yield: 8.98%

## CCNc1cc(C)c2nc3ccc(=[N+](CC)CC)cc-3oc2c1 [LGW02-61, N-ethyl-N-(7-(ethylamino)-9-methyl-3H-phenoxazin-3-ylidene)ethanaminium]
  Max Abs: 630 nm
  Max Em: 658 nm
  Max Ex: 635 nm
  Extinction coefficient: 68548 M⁻¹ cm⁻¹
  Quantum yield: 6.12%

## CC[N+](CC)=c1ccc2nc3cc4c5c(c3oc-2c1)CCCN5CCC4 [LGW02-86, N-ethyl-N-(2,3,6,7-tetrahydro-1H,5H,12H-quinolizino[1,9-bc]phenoxazin-12-ylidene)ethanaminium]
  Max Abs: 661 nm
  Max Em: 680 nm
  Max Ex: 665 nm
  Extinction coefficient: 39472 M⁻¹ cm⁻¹
  Quantum yield: 13.18%

## c1c2c3c(c4c1N=c1cc5c6c(c1O4)CCC[N+]=6CCC5)CCCN3CCC2 [LGW02-87, 2,3,6,7,12,13,16,17-octahydro-1H,5H,11H,15H-diquinolizino[1,9-bc:1′,9′-hi]phenoxazin-4-ium]
  Max Abs: 678 nm
  Max Em: 690 nm
  Max Ex: 680 nm
  Extinction coefficient: 59937 M⁻¹ cm⁻¹
  Quantum yield: 15.03%

## CC/N=c1/cc2oc3cc4c(cc3nc-2cc1C)CCCN4CC [LGW02-91, (Z)—N-(1-ethyl-8-methyl-1,2,3,4-tetrahydro-9H-pyrido[3,2-b]phenoxazin-9-ylidene)ethanaminium]
  Max Abs: 640 nm
  Max Em: 657 nm
  Max Ex: 645 nm
  Extinction coefficient: 59971 M⁻¹ cm⁻¹
  Quantum yield: 23.58%

## CCN1CCCc2cc3nc4ccc(=[N+](CC)CC)cc-4oc3cc21 [LGW02-92, N-ethyl-N-(1-ethyl-1,2,3,4-tetrahydro-9H-pyrido[3,2-b]phenoxazin-9-ylidene)ethanaminium]
  Max Abs: 656 nm
  Max Em: 673 nm
  Max Ex: 660 nm
  Extinction coefficient: 43659 M⁻¹ cm⁻¹
  Quantum yield: 9.27%

## CCN1CCCc2cc3c(cc21)Oc1cc2c(cc1=N3)CCC[N+]=2CC [LGW02-99, 1,11-diethyl-3,4,8,9,10,11-hexahydro-2H-dipyrido[3,2-b:2′,3′-i]phenoxazin-1-ium]
  Max Abs: 640 nm
  Max Em: 675 nm
  Max Ex: 665 nm
  Extinction coefficient: 59971 M⁻¹ cm⁻¹
  Quantum yield: 24.67%

## CC/N=c1/cc2oc3cc(N4CCCC4)ccc3nc-2cc1C [LGW03-06, (Z)—N-(2-methyl-7-(pyrrolidin-1-yl)-3H-phenoxazin-3-ylidene)ethanaminium]
  Max Abs: 640 nm
  Max Em: 661 nm
  Max Ex: 640 nm
  Extinction coefficient: 35942 M⁻¹ cm⁻¹
  Quantum yield: 11.94%

## CC/N=c1/cc2oc3cc4c(cc3nc-2cc1C)CCCN4 [LGW03-12, (Z)—N-(8-methyl-1,2,3,4-tetrahydro-9H-pyrido[3,2-b]phenoxazin-9-ylidene)ethanaminium]
  Max Abs: 624 nm
  Max Em: 638 nm
  Max Ex: 630 nm
  Extinction coefficient: 40041 M⁻¹ cm⁻¹
  Quantum yield: 27.22%

## CC[N+](CC)=c1ccc2nc3cc4c(cc3oc-2c1)NCCC4 [LGW03-13, N-ethyl-N-(1,2,3,4-tetrahydro-9H-pyrido[3,2-b]phenoxazin-9-ylidene)ethanaminium]
  Max Abs: 641 nm
  Max Em: 659 nm
  Max Ex: 645 nm
  Extinction coefficient: 64045 M⁻¹ cm⁻¹
  Quantum yield: 6.49%

## CC[N+](CC)=c1ccc2nc3ccc(N4CCCCC4)cc3oc-2c1 [LGW03-18, N-ethyl-N-(7-(piperidin-1-yl)-3H-phenoxazin-3-ylidene)ethanaminium]
  Max Abs: 661 nm
  Max Em: 680 nm
  Max Ex: 665 nm
  Extinction coefficient: 66206 M⁻¹ cm⁻¹
  Quantum yield: 3.49%

## CC/N=c1/cc2oc3cc(N4CCCCC4)ccc3nc-2cc1C [LGW03-21, (Z)—N-(2-methyl-7-(piperidin-1-yl)-3H-phenoxazin-3-ylidene)ethanaminium]
  Max Abs: 642 nm
  Max Em: 661 nm
  Max Ex: 640 nm
  Extinction coefficient: 36049 M⁻¹ cm⁻¹
  Quantum yield: 2.25%

## c1cc2nc3ccc(=[N+]4CCCC4)cc-3oc2cc1N1CCCC1 [LGW03-31, 1-(7-(pyrrolidin-1-yl)-3H-phenoxazin-3-ylidene)pyrrolidin-1-ium]
  Max Abs: 655 nm
  Max Em: 674 nm
  Max Ex: 655 nm
  Extinction coefficient: 48226 M⁻¹ cm⁻¹
  Quantum yield: 15.78%

## c1c2c(cc3c1N=c1cc4c(cc1O3)=NCCC4)NCCC2 [LGW03-32, 3,4,8,9,10,11-hexahydro-2H-dipyrido[3,2-b:2′,3′-i]phenoxazin-1-ium]
  Max Abs: 631 nm
  Max Em: 644 nm
  Max Ex: 630 nm
  Extinction coefficient: 45650 M⁻¹ cm⁻¹
  Quantum yield: 29.92%

## CC/N=c1/cc2oc3cc4c(cc3nc-2cc1C)OCCN4 [LGW03-41, (Z)—N-(9-methyl-3,4-dihydro-[1,4]oxazino[2,3-b]phenoxazin-8(2H)-ylidene)ethanaminium]
  Max Abs: 607 nm
  Max Em: 641 nm
  Max Ex: 625 nm
  Extinction coefficient: 19729 M⁻¹ cm⁻¹
  Quantum yield: 25.80%

## CCN1c2cc3oc4cc(=[N+](CC)CC)ccc-4nc3cc2C(C)=CC1(C)C [LGW03-52, N-ethyl-N-(1-ethyl-2,2,4-trimethyl-1,2-dihydro-9H-pyrido[3,2-b]phenoxazin-9-ylidene)ethanaminium]
  Max Abs: 678 nm
  Max Em: 699 nm
  Max Ex: 680 nm
  Extinction coefficient: 38039 M⁻¹ cm⁻¹
  Quantum yield: 6.82%
